Measured values from patent publication US20250136576A1, “Heterocyclic Compounds and Uses Thereof” (ACEA Therapeutics, Inc., priority 2021, published 2025).

test system: KM12-luc cells; assay: Cell proliferation and growth inhibition assay (CCK-8) in KM12-luc; format: cell-based; details: KM12-Luc, 72 h, KM12-luc cells, treated with test compounds for 72 hrs, CCK-8 viability; read-out: NTRK IC50 in KM12-luc
Procedure: MV-4-11 and H1975 cells were obtained from the American Type Culture Collection and KM12-luc cells were obtained from JCRB Cell Bank. All cell lines were maintained at 37° C. with 5% C02, in media supplemented with 10% fetal bovine serum and penicillin (100 units/mL) and streptomycin (100 μg/mL). MV-4-11 cells were maintained in Iscove's Modified Dubecco's Medium, H1975 cells were cultured with RPMI 1640 media, and KM12-luc cells were maintained in Dulbecco's Modification of Eagle's Medium. CCK-8 reagent was obtained from Yeasen. Cell proliferation was assessed by CCK-8 assay (Yeasen) per the manufacturer's instructions. […] Cell viability was assayed by incubating the cells with CCK-8 reagent for 1-4 hrs. Absorbance was measured at OD450 using the Beckman DTX880. The data was calculated using GraphPad Prism version 6.01. The IC50 values were fitted using a non-linear regression model with a sigmoidal dose response.

SMILES | IC50
CN(C)CCN(C)c1ccc(Nc2nc(-c3cn(C)c4ccccc34)c3cc[nH]c3n2)cc1NS(C)(=O)=O [Compound 205c, N-(2-((2-(dimethylamino)ethyl)(methyl)amino)-5-((4-(1-methyl-1H-indol-3-yl)-7H-pyrrolo[2,3-d]pyrimidin-2-yl)amino)phenyl)methanesulfonamide] | 329 nM
CCN(CCN(C)C)c1ccc(Nc2nc(-c3cn(C)c4ccccc34)c3cc[nH]c3n2)cc1NCCF [Compound 212e, N^1-(2-(dimethylamino)ethyl)-N^1-ethyl-N^2-(2-fluoroethyl)-N^4-(4-(1-methyl-1H-indol-3-yl)-7H-pyrrolo[2,3-d]pyrimidin-2-yl)benzene-1,2,4-triamine] | 3360 nM
CN(C)[C@H]1CCN(c2ccc(Nc3ncc(Cl)c(-c4cn(C)c5c(F)cccc45)n3)cc2N)C1 [Compound S-420, (S)—N^1-(5-chloro-4-(7-fluoro-1-methyl-1H-indol-3-yl)pyrimidin-2-yl)-4-(3-(dimethylamino)pyrrolidin-1-yl)benzene-1,3-diamine] | 261 nM
COc1nc(Nc2ccc(N(C)CCN(C)C)c(NC(C)=O)c2)nc(-c2cn(C)c3ccccc23)c1OC [Compound 291a, N-(5-((4,5-dimethoxy-6-(1-methyl-1H-indol-3-yl)pyrimidin-2-yl)amino)-2-((2-(dimethylamino)ethyl) (methyl)amino)phenyl)acetamide] | 8660 nM
Cc1nc2ccc(Nc3ncc(Cl)c(-c4c[nH]c5ccccc45)n3)cc2[nH]1 [Compound 394b, N-(5-chloro-4-(1H-indol-3-yl)pyrimidin-2-yl)-2-methyl-1H-benzo[d]imidazol-6-amine] | 131 nM
CNc1cc(Nc2ncc(OC)c(-c3c[nH]c4ccccc34)n2)ccc1N(C)CCN(C)C [Compound 273a, N^4-(4-(1H-indol-3-yl)-5-methoxypyrimidin-2-yl)-N1-(2-(dimethylamino)ethyl)-N^1,N^2-dimethylbenzene-1,2,4-triamine] | 127 nM
Cc1cccc2c(-c3nc(Nc4ccc5c(c4)nc(C)n5CCN(C)C)ncc3C(F)(F)F)c[nH]c12 [Compound 364, 1-(2-(dimethylamino)ethyl)-2-methyl-N-(4-(7-methyl-1H-indol-3-yl)-5-(trifluoromethyl)pyrimidin-2-yl)-1H-benzo[d]imidazol-5-amine] | 20.1 nM
CCC(=O)Nc1cc(Nc2nc(-c3c[nH]c4cc(F)ccc34)ncc2C(F)(F)F)ccc1N(CC)CCN(C)C [Compound 330b, N-(2-((2-(dimethylamino)ethyl)(ethyl)amino)-5-((2-(6-fluoro-1H-indol-3-yl)-5-(trifluoromethyl)pyrimidin-4-yl)amino)phenyl)propionamide] | > 3330 nM
CC(=O)Nc1cc(Nc2ncc(C(F)(F)F)c(-c3cn(C)c4ccccc34)n2)c(F)cc1N(C)CCN(C)C [Compound 313, N-(2-((2-(dimethylamino)ethyl)(methyl)amino)-4-fluoro-5-((4-(1-methyl-1H-indol-3-yl)-5-(trifluoromethyl)pyrimidin-2-yl)amino)phenyl)acetamide] | 308 nM
CN(C)CCN(C)c1ccc(Nc2nc(-c3cn(C)c4ccccc34)c3cc[nH]c3n2)cc1N [Compound 204, N^1-(2-(dimethylamino)ethyl)-N^1-methyl-N^4-(4-(1-methyl-1H-indol-3-yl)-7H-pyrrolo[2,3-d]pyrimidin-2-yl)benzene-1,2,4-triamine] | 45.8 nM
CC(=O)Nc1cc(Nc2ncc(F)c(-c3cn(C)c4ccccc34)n2)ccc1N(C)CCN(C)C [Compound 261, N-(2-((2-(dimethylamino)ethyl)(methyl)amino)-5-((5-fluoro-4-(1-methyl-1H-indol-3-yl)pyrimidin-2-yl)amino)phenyl)acetamide] | 509 nM
COc1cc(N2CCN(C(C)=O)CC2)ccc1Nc1nc(Nc2cccc(NC(C)=O)c2)ncc1C(F)(F)F [Compound 173, N-(3-((4-((4-(4-acetylpiperazin-1-yl)-2-methoxyphenyl)amino)-5-(trifluoromethyl)pyrimidin-2-yl)amino)phenyl)acetamide] | 85.7 nM
CCN(CCN(C)C)c1c(F)cc(Nc2ncc(Cl)c(-c3c[nH]c4ccccc34)n2)cc1NC(C)=O [Compound 443, N-(5-((5-chloro-4-(1H-indol-3-yl)pyrimidin-2-yl)amino)-2-((2-(dimethylamino)ethyl) (ethyl)amino)-3-fluorophenyl)acetamide] | 33.3 nM
Cc1cccc2c(-c3nc(Nc4ccc(N(C)CCN(C)C)c(N)c4)ncc3C(F)(F)F)cn(C)c12 [Compound 369, N^4-(4-(1,7-dimethyl-1H-indol-3-yl)-5-(trifluoromethyl)pyrimidin-2-yl)-N^1-(2-(dimethylamino)ethyl)-N^1-methylbenzene-1,2,4-triamine] | 27.6 nM
CC(=O)Nc1cc(Nc2ncc(C(F)(F)F)c(-c3cn(C)c4c(F)cccc34)n2)ccc1N1CC[C@H](N(C)C)C1 [Compound S-353, (S)—N-(2-(3-(dimethylamino)pyrrolidin-1-yl)-5-((4-(7-fluoro-1-methyl-1H-indol-3-yl)-5-(trifluoromethyl)pyrimidin-2-yl)amino)phenyl)acetamide] | 35.2 nM
CCN(CCN(C)C)c1ccc(Nc2ncc(C(F)(F)F)c(-c3c[nH]c4cc(F)ccc34)n2)cc1NC(C)=O [Compound 331a, N-(2-((2-(dimethylamino)ethyl)(ethyl)amino)-5-((4-(6-fluoro-1H-indol-3-yl)-5-(trifluoromethyl)pyrimidin-2-yl)amino)phenyl)acetamide] | 32.3 nM
COc1cnc(Nc2ccc(OCCN(C)C)c(N)c2)nc1-c1cn(C)c2c(F)cccc12 [Compound 283, 4-(2-(dimethylamino)ethoxy)-N^1-(4-(7-fluoro-1-methyl-1H-indol-3-yl)-5-methoxypyrimidin-2-yl)benzene-1,3-diamine] | 86.4 nM
CC(=O)Nc1cc(Nc2nc(-c3cn(C)c4cccc(F)c34)c3cc[nH]c3n2)ccc1N(C)CCN(C)C [Compound 218, N-(2-((2-(dimethylamino)ethyl)(methyl)amino)-5-((4-(4-fluoro-1-methyl-1H-indol-3-yl)-7H-pyrrolo[2,3-d]pyrimidin-2-yl)amino)phenyl)acetamide] | 103 nM
CCN(CCN(C)C)c1ccc(Nc2nc(-c3cn(C)c4ccccc34)c3cc[nH]c3n2)cc1NC(=O)C(C)C [Compound 212d, N-(2-((2-(dimethylamino)ethyl)(ethyl)amino)-5-((4-(1-methyl-1H-indol-3-yl)-7H-pyrrolo[2,3-d]pyrimidin-2-yl)amino)phenyl)isobutyramide] | 93.1 nM
CCN(CCN(C)C)c1ccc(Nc2ncc(C(F)(F)F)c(-c3cn(C)c4c(F)cccc34)n2)cc1NC(C)=O [Compound 348, N-(2-((2-(dimethylamino)ethyl)(ethyl)amino)-5-((4-(7-fluoro-1-methyl-1H-indol-3-yl)-5-(trifluoromethyl)pyrimidin-2-yl)amino)phenyl)acetamide] | 87.8 nM

same assay, conditions: KM12-Luc, 72 h, read-out: NTRK IC50 in KM12-luc

SMILES | IC50
CCNc1cc(Nc2nc(-c3cn(C)c4ccccc34)c3cc[nH]c3n2)ccc1N(CC)CCN(C)C [Compound 212f, N^1-(2-(dimethylamino)ethyl)-N^1,N^2-diethyl-N^4-(4-(1-methyl-1H-indol-3-yl)-7H-pyrrolo[2,3-d]pyrimidin-2-yl)benzene-1,2,4-triamine] | 546 nM
